Measurements as given in patent publication US10501805B2, “Methods for determining responsiveness to MEK/ERK inhibitors” (CROWN BIOSCIENCE, INC. (TAICANG), priority 2014, dated 2019).

Legend:
Assay type in all cases: cell-based
panel of 50 cell lines = assay: Sensitivity of cell line panel by gene mutation status
Description: We examined the anti-proliferation activity of a MEK inhibitor, trametinib, and an ERK1/2 inhibitor, SCH772984, in a panel of […] (see Table 1).
We divided the 63 cell lines into sensitive, insensitive, and uncertain groups according to their IC50's for SCH772984 and Trametinib, respectively, then detected genes with differential expression or different mutation types between sensitive and insensitive groups. These genes were enriched in several cancer related pathways.
The 63 cell lines were divided into 3 groups (See Table 1): a sensitive group (IC50 values were less than 1), an insensitive group (IC50 values are greater than 10), and an uncertain group (the rest). Accordingly, we got 25 sensitive and 22 insensitive cell lines for SCH772984, and 34 sensitive and 24 insensitive cell lines for Trametinib. Only cell lines with genomic data were used in subsequent analysis. The differentially expressed genes and enriched pathways were analysed using GSEA software, the genes with different mutation types were detected using Fisher's exact test.
29 sensitive and 20 insensitive cell lines have mutation information, and ADAM12, COL14A1, TNN and TP53 were identified by P-value cutoff of 0.01 (See Table 3 and FIG. 1-5).
21 sensitive and 18 insensitive cell lines have mutation information, and ADAM12, PEX5L, TNN and TP53 were identified by P-value cutoff of 0.01 (See Table 3 and FIGS. 6-10).

NCI-H1792 = assay: CellTiter-Glo cell viability, IC50 determination; details: Homo sapiens, 72 h; NCI-H1792 cell line; 3-day CTG assay; read-out: Absolute IC50
Method: (§1) All the cells will be cultured in the media supplemented with 10% FBS except for which are marked specially, in the temperature of 37° C., 5% CO2 and 95% humidity.
(§2) Cell viability is assayed by using CellTiter-Glo® Luminescent Cell Viability Assay Kit (Cat. No.: G7572, Promega. Store at −20° C.). To prepare the CellTiter_Glo Reagent, the CellTiter-Glo Buffer was thawed and equilibrated to room temperature prior to use. For convenience the CellTiter-Glo Buffer may be thawed and stored at room temperature for up to 48 hours prior to use. The lyophilized CellTiter-Glo Substrate is equilibrated to room temperature prior to use. The appropriate volume (100 ml) of CellTiter-Glo Buffer is transferred into the amber bottle containing CellTiter-Glo Substrate to reconstitute the lyophilized enzyme/substrate mixture, which forms the CellTiter-Glo Reagent. In certain cases, the entire liquid volume of the CellTiter-Glo Buffer bottle may be added to the CellTiter-Glo Substrate vial. Mix by gently vortexing, swirling or by inverting the contents to obtain a homogeneous solution. The CellTiter-Glo Substrate should go into solution easily in less than one minute.
(§3) The day before the experiment (Day −1), cells were dissociated during the logarithmic growth period with Cell Disassociation Buffer (Gibco 13151-014) and mixed with appropriate cell media and centrifuge at 1000 rpm for 3 minutes. The cells were re-suspended and counted using Countstar before adjusting cell concentrations to optimized density (i.e. 4.44×10^4 cells/ml) with respective culture medium listed in Table 1 for 3-day CTG assay (The cell density was optimized before actual study; cell density used in the test may vary for different cell lines). 90 μl cell suspensions were added to two 96-well plates (plates A and B) with the final cell density of 4×10^3 cells/well for 3-day CTG assay (the cell density was optimized before actual study; cell density used in the test may vary for different cell lines). The plate A and B group were incubated for overnight in humidified incubator at 37° C. with 5% CO2.
(§4) On Day 0, for plate A group, 10 μl culture medium was added to each well for T0 reading. CellTiter-Glo® Reagent was added at equal volume of cell culture medium present in each well (e.g., add 100 μl of reagent to 100 μl of medium containing cells for a 96-well plate). Contents were mixed for 2 minutes on an orbital shaker to facilitate cell lysis. The plate was allowed to incubate at room temperature for 10 minutes to stabilize luminescent signal. Backseal black sticker was added to the bottom of each plate. Luminescence was recorded using EnVision Multi Label Reader. This formed the basis for T0 value.
(§5) On Day 0, the test articles and positive controls were dissolved at the concentration indicated at Test Article Dilution map. 100× solution in PBS was prepared and then diluted with appropriate culture media (1:10) into 10×working solutions. 10 μl (10×) drug solutions were dispensed in each well (triplicate for each drug concentration) of the plate B group according to plate inoculation map. The test plates were incubated for […] in the humidified incubator at 37° with 5% CO2.
(§6) On Day 3, CellTiter-Glo® Reagent was added at equal volume of cell culture medium present in each well (e.g., add 100 μl of reagent to 100 μl of medium containing cells for a 96-well plate). Contents were mixed for 2 minutes on an orbital shaker to induce cell lysis. The plate was allowed to incubate at room temperature for 10 minutes to stabilize luminescent signal. Backseal black sticker was placed to the bottom of each plate. Luminescence was recorded using EnVision Multi Label Reader.
(§7) In order to calculate IC50s, a dose-response curve was fitted using a nonlinear regression model with a sigmoidal dose response. The formula for calculating surviving rate was shown below; Absolute IC50 is calculated where Y axis set at 50% using GraphPad Prism 5.0. Software. […]

SW620 = assay: CellTiter-Glo cell viability, IC50 determination; details: Homo sapiens, SW-620, 72 h; SW620 cell line; 3-day CTG assay; read-out: Absolute IC50
Method: as §1, §2, §3, §4, §5, §6, §7

KM12L4 = assay: CellTiter-Glo cell viability, IC50 determination; details: KM 12L4, 72 h; KM12L4 cell line; 3-day CTG assay; read-out: Absolute IC50
Method: as §1, §2, §3, §4, §5, §6, §7

Sk-Mel-5 = assay: CellTiter-Glo cell viability, IC50 determination; details: Homo sapiens, 72 h; Sk-Mel-5 cell line; 3-day CTG assay; read-out: Absolute IC50
Method: as §1, §2, §3, §4, §5, §6, §7

DLD-1 = assay: CellTiter-Glo cell viability, IC50 determination; details: Homo sapiens, 72 h; DLD-1 cell line; 3-day CTG assay; read-out: Absolute IC50
Method: as §1, §2, §3, §4, §5, §6, §7

KYSE150 = assay: CellTiter-Glo cell viability, IC50 determination; details: Homo sapiens, KYSE-150, 72 h; KYSE150 cell line; 3-day CTG assay; read-out: Absolute IC50
Method: as §1, §2, §3, §4, §5, §6, §7

A549 = assay: CellTiter-Glo cell viability, IC50 determination; details: Homo sapiens, 72 h; A549 cell line; 3-day CTG assay; read-out: Absolute IC50
Method: as §1, §2, §3, §4, §5, §6, §7

NCI-H23 = assay: CellTiter-Glo cell viability, IC50 determination; details: Homo sapiens, 72 h; NCI-H23 cell line; 3-day CTG assay; read-out: Absolute IC50
Method: as §1, §2, §3, §4, §5, §6, §7

MIAPaCa2 = assay: CellTiter-Glo cell viability, IC50 determination; details: Homo sapiens, MIA PaCa-2, 72 h; MIAPaCa2 cell line; 3-day CTG assay; read-out: Absolute IC50
Method: as §1, §2, §3, §4, §5, §6, §7

[1] = cells harboring mutations in ADAM12 gene
[2] = cells harboring mutations in TNN gene
[3] = cells harboring mutations in TP53 gene

IC50 (NCI-H1792) [µM]	IC50 (SW620) [µM]	IC50 (DLD-1) [µM]	IC50 (A549) [µM]	IC50 (NCI-H23) [µM]	IC50 (MIAPaCa2) [µM]	Compound	sensitivity to inhibitor in cells harboring mutations (panel of 50 cell lines; cells harboring multiple mutations in ADAM 12, PEX5L, TNN and TP53 gene)	sensitivity to inhibitor in cells harboring mutations (panel of 50 cell lines; [1])	sensitivity to inhibitor in cells harboring mutations (panel of 50 cell lines; cells harboring mutations in PEX5L gene)	sensitivity to inhibitor in cells harboring mutations (panel of 50 cell lines; [2])	sensitivity to inhibitor in cells harboring mutations (panel of 50 cell lines; [3])	IC50 (KM12L4) [µM]	IC50 (Sk-Mel-5) [µM]	IC50 (KYSE150) [µM]	sensitivity to inhibitor in cells harboring mutations (panel of 50 cell lines; cells harboring multiple mutations in ADAM12, COL14A1, TNN, and TP53 gene)	sensitivity to inhibitor in cells harboring mutations (panel of 50 cell lines; cells harboring mutations in COL14A1 gene)
4.7	0.26	52.8	1.78	3.69	0.21	O=C(Nc1ccc2[nH]nc(-c3ccncc3)c2c1)[C@@H]1CCN(CC(=O)N2CCN(c3ccc(-c4ncccn4)cc3)CC2)C1 [SCH772984, (R)-1-(2-oxo-2-(4-(4-(pyrimidin-2-yl)phenyl)piperazin-1-yl)ethyl)-N-(3-(pyridin-4-yl)-1H-indazol-5-yl)pyrrolidine-3-carboxamide]	increased sensitivity	increased sensitivity	increased sensitivity	increased sensitivity	increased sensitivity	0.36	0.2	1.72		
0.16	0.01	6.52	0.24	0.3	0.03	CC(=O)Nc1cccc(-n2c(=O)n(C3CC3)c(=O)c3c(Nc4ccc(I)cc4F)n(C)c(=O)c(C)c32)c1 [Trametinib, N-(3-{3-Cyclopropyl-5-[(2-fluoro-4-iodophenyl)amino]-6,8-dimethyl-2,4,7-trioxo-3,4,6,7-tetrahydropyrido[4,3-d]pyrimidin-1(2H)-yl}phenyl)acetamide]		increased sensitivity		increased sensitivity	increased sensitivity	0.01	0.01	5.28	increased sensitivity	decreased sensitivity
